From patent publication US6806267B1, “Apoptosis-inducing compounds” (priority 1998, dated 2004)

Legend:
Jurkat cells [1] = format: cell-based, human; details: 200 μM
JNK1 and JNK2 = format: cell-based, human; details: K562
K562 cells = experiment: Apoptosis in K562 cells, cytospin and staining; format: cell-based, human; details: K562, 200 μM 1 hour, then PBOX-6 10 μM 16 hours
Jurkat cells [2] = format: cell-based, human; details: 200 μM; remark: listed apart in the source
Description: This assay was set up as described by Kohn et al., 1976 with the following modifications.
Cells were seeded at 0.4×10^6 cells/ml and were in the logarithmic phase of growth. […] Cells harvested for the experiments were at a density of 2×10^6 cells/ml.
Cells (1×10^6) were labelled with [^3H] thymidine (sp. act. 2 Ci/mmol) (0.2 μCi/ml) and 1 μM unlabelled thymidine, and incubated for 20 hr. Cells were harvested by centrifugation at 500×g for 5 mins following by two washes in PBS and the pellet was resuspended in 3 ml of PBS. Cells were aliquoted into 1 ml amounts in a 24 well plate and allowed to recover for 1 hr at 37° C. before treating with indicated compounds. Following treatment, cells were washed once in PBS and resuspended in 250 μl of PBS. An aliquot of cells (200 μl) was loaded directly onto a 25 mm diameter glass fiber filter, pore size of 0.2 μM. The cells were lysed on the filter by the addition of 5 ml lysis buffer (2% (w/v) SDS, 10 mM disodium EDTA (pH 10) supplemented with 0.5 mg/ml proteinase K. The lysis buffer was allowed to flow slowly through the filter without suction. Filters were washed using 3 ml wash solution (0.02M Na3EDTA pH 10) allowing it to flow without suction. Filters were eluted in the dark with an alkaline solution (0.04M EDTA plus tetrapropylammonium hydroxide (10% in H2O ) added in the amount required to give pH 12.1). The elution apparatus consisted of a filter funnel with output tubing passing through a peristaltic pump to a collector. Elution took place overnight at a flow rate of 0.05 ml/min. Following elution, filters were treated with 0.4 ml HCl (1N) for 1 hr at 70° C. followed by 2.5 ml NaOH (0.4N) for 30 min at room temp. Scintillation fluid (10 ml) was added and radioactivity remaining on the filters was determined by scintillation counting.

[3] = molecular target: T1, peripheral-type benzodiazepine receptor (PBR) (Homo sapiens, UniProt P30536); experiment: Radioligand binding assay, inhibition of [^3H]PK 11195 binding to HL-60 homogenates
T1 construct: Cell homogenates (50 μg protein) were incubated with 0.5-50 nM [^3H]; PK 11195; endogenous in cells; host or cells: HL-60 cell homogenate
T1 sequence (P30536 whole entry): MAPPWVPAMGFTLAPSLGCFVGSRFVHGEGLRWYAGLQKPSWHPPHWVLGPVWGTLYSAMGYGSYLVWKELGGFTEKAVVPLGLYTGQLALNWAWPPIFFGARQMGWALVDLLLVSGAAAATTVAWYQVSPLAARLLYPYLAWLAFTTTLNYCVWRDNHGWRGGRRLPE
Description: HL-60 cells were harvested by centrifugation at 600 g for 5 min and washing in phosphate-buffered saline. The resulting cell pellet was homogenised in 50 mM Tris/HCl buffer, pH 7.4 (2 ml), using an Ultraturrax homogeniser (10 sec) and then passed 5 times through a 21 gauge needle. Cell homogenates (50 μg protein) were incubated with 0.5-50 nM [^3H] PK 11195 in 50 mM Tris/HCl buffer, pH 7.4 (incubation buffer), in a total volume of 0.5 ml on ice. Total and non-specific/non-saturable binding in each case was determined in the absence and presence of 10 μM unlabelled PK 11195 respectively. All samples were incubated in triplicate for 60 min. The incubation mixtures were then filtered and counted as previously described (O'Beirne, et al., 1988). When testing the potency of a compound to inhibit [^3H] PK 11195 binding, samples were incubated with 2 nM [3H] PK 11195 and various concentrations (0.1 nM to 1 μM) of compound and subsequently treated exactly as above. The resulting Ki values were then generated by the use of the computer programs EBDA and LIGAND.
The amount of radioactivity bound in the presence of the displacer was expressed as a percentage of control bonding and the values represent the mean±SEM of triplicate determinations from one representative experiment performed at least twice. The Ki values were obtained as described in Methods section.

[4] = tested on: PARP (poly ADP-ribose polymerase); experiment: Western blot of PARP cleavage in Hela cells; format: cell-based, human
Description: CML cells were seeded at 2×10^6 cells in 5 mls of growth medium, and treated with 10 μM PBOX-6 for 16 and 24 hr. Hela cells were seeded at 1×10^6 cells per 25 cm^2 flask. Following a 24 hour incubation, the cells were treated with PBOX-3 for a further 48 hours and the cells were scraped up. Cells were then centrifuged at 500 g for 5 min, the supernatant was removed and the pellet was resuspended in 200 μl of PARP sample buffer (62.5 mM Tris/HCl pH 6.8, 6 M urea, 10% (w/v) glycerol, 2% (w/v) SDS, 0.00125% bromophenol blue, and 5% (v/v) β-mercaptoethanol was added immediately before use). Samples were sonicated for 15 sec before aliquoting into 15 μl volumes. Samples were stored at −20° C. until use. 10-15 μl of thawed samples were resolved directly on a 10% polyacrylamide gel and transferred onto PVDF membrane at room temperature using wet transfer apparatus. After transfer, the membrane was blocked overnight in PBS containing 5% dry milk (Marvel). After blocking, the membrane was washed in PBST for 2×2 minutes before incubating for 1 hr with anti-PARP antibody (2 μg/ml in PBST containing 1% dry milk). Following incubation the membrane was washed for 20 minutes in PBST and incubated with goat anti mouse HRP conjugated secondary antibody (1:1000 dilution in PBST containing 1% dry milk). After washing in PBST for 30 minutes, ECL was used to visualise the proteins. […]

HL-60 cells = experiment: Apoptosis in HL-60 cells, cytospin and Rapi-Diff staining

C[C@@H](CN1CC(=O)NC(=O)C1)N1CC(=O)NC(=O)C1 [ICRF 187, reference compound]
effect of pretreatment on etoposide induced apoptosis (Jurkat cells [1]): inhibited apoptosis induced by etoposide | effect of Topo II inhibitor pretreatment on PBOX-6 induced JNK activation (JNK1 and JNK2): failed to prevent against PBOX-6 induced activation of JNK | effect of pretreatment on PBOX-6 induced apoptosis (K562 cells): reduced but did not completely inhibit | effect of pretreatment on etoposide induced DNA strand breaks (Jurkat cells [2]): prevented etoposide induced DNA strand breaks

CC(=O)OC1=C(c2ccccc2)Oc2cc3ccccc3cc2-n2cccc21 [PBOX-3, 4-Acetoxy-5-phenylnaphto[2,3-b]pyrrolo[1,2-d][1,4]oxazepine]
Ki [3]: 6 ± 1.9 nM | PARP cleavage [4]: induced PARP cleavage | degree of necrosis (HL-60 cells; HL-60 cells, 10 μM, 16 hours): negligible | cytotoxicity at 10 µM (HL-60 cells; Homo sapiens, HL-60, 16 h, read-out: % Apoptosis): 23.5 ± 2.1%
